Assay [1] deals with T1, PLK1 (Homo sapiens, UniProt P53350). Kind of assay: In vitro PLK1 ELISA assay (biochemical). The settings on record: for IC50: ELISA, CHK2-derived peptide substrate, read-out: PLK1 IC50 (μM) biochemical assay; for pIC50: read-out: IC50 in biochemical in vitro PLK1 ELISA assay (less than 10 μM). Also noted: purchased Cell Signalling 7728. The method, boiled down: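 Commercial PLK1 phosphorylates neutravidin-captured biotinylated CHK2 peptide for 45 min at room temperature in HEPES pH 7.2 with Mg2+/Mn2+/DTT, compounds at 10 μM to 0.005 μM. Phospho-CHK2(T68) antibody plus HRP secondary gives chemiluminescent read-out used for IC50.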
T1 sequence (P53350 whole entry): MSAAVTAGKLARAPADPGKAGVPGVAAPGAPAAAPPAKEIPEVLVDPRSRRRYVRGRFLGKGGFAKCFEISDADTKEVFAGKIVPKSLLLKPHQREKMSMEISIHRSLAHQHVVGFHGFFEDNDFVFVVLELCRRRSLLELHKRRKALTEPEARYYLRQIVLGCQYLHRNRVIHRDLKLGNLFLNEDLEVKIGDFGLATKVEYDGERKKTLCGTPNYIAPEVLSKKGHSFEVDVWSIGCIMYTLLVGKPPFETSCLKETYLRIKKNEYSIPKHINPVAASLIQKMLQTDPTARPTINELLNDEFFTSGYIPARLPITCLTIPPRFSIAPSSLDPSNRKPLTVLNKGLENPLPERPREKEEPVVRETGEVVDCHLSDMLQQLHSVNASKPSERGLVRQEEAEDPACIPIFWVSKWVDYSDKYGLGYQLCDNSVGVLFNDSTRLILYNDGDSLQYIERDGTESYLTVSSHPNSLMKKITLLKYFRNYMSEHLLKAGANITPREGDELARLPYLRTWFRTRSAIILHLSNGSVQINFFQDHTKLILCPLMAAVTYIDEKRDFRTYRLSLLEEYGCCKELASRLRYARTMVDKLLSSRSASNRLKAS
For orientation: An ELISA detects its analyte on a solid surface through an enzyme-linked reagent.

The target in assay [2] is T1, PLK1. The assay can be described thus: Cellular PLK1 assay in K562 cells overexpressing CDC25C. It counts as cell-based. Also noted: endogenous in cells; host or cells: K562 (human chronic myelogenous leukemia) overexpressing CDC25C, nocodazole-arrested. The settings on record: nocodazole arrested, cdc25c p-Ser198 readout. A digest of the protocol:
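K562 cells overexpressing CDC25C were arrested with 333 nM nocodazole for 18 h at 37 °C, then exposed to compound at 8 points from 10 μM to 0.005 μM in duplicate for 120 min. After fixation and permeabilization, cells were stained for cdc25c pSer198 with a PE secondary and read by flow cytometry, 10,000 cells per well.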

Structures are written as SMILES. pIC50: −log10 of the molar value. Some results are limits rather than exact numbers.

What is called IC50 is the concentration at which inhibition is half-maximal. The term pIC50 denotes the negative decadic logarithm of the IC50, by convention in mol/L. Consider `CN1CCN(c2cccc(Nc3ncc(F)c(Nc4ccc5c(n4)NC(=O)CO5)n3)c2)CC1` [compound 157, 6-(5-fluoro-2-(3-(4-methylpiperazin-1-yl)phenylamino)pyrimidin-4-ylamino)-2H-pyrido[3,2-b][1,4]oxazin-3(4H)-one], for which the IC50 in assay [1] and in assay [2] was less than 0.5 µM each time. Moreover, the pIC50 in assay [1] was more than 5.00.

Take `CN1CCN(c2cccc(Nc3ncc(F)c(Nc4ccc5c(n4)NC(=O)C(C)(C)O5)n3)c2)CC1` [compound 161, 6-(5-fluoro-2-(3-(4-methylpiperazin-1-yl)phenylamino)pyrimidin-4-ylamino)-2,2-dimethyl-2H-pyrido[3,2-b][1,4]oxazin-3(4H)-one]: in assay [1], the IC50 is less than 0.5 µM and the pIC50 is more than 5.00. Moreover, in assay [2], the IC50 lay in the range of 0.5 to 5 µM.

For the compound `CN1CCN(c2cccc(Nc3ncc(F)c(Nc4ccc5c(n4)NCCO5)n3)c2)CC1` [compound 167, N4-(3,4-dihydro-2H-pyrido[3,2-b][1,4]oxazin-6-yl)-5-fluoro-N2-(3-(4-methylpiperazin-1-yl)phenyl)pyrimidine-2,4-diamine], the IC50 in assay [1] and in assay [2] was less than 0.5 µM in each case. In addition, in assay [1], the pIC50 is more than 5.00.

Take `CCN1C(=O)COc2ccc(Nc3nc(Nc4ccc(N5CCN(C)CC5)cc4)ncc3Cl)cc21` [compound 173, 6-(5-chloro-2-(4-(4-methylpiperazin-1-yl)phenylamino)pyrimidin-4-ylamino)-4-ethyl-2H-benzo[b][1,4]oxazin-3(4H)-one]: in assay [1], the IC50 was in the range of 0.5 to 5 µM and the pIC50 is more than 5.00. Also, the IC50 in assay [2] fell in the range of 0.5 to 5 µM.

Consider `CCN1CCN(c2ccc(Nc3ncc(Cl)c(Nc4ccc5c(c4)N(CC)C(=O)CO5)n3)cc2)CC1` [compound 183, 6-(5-chloro-2-(4-(4-ethylpiperazin-1-yl)phenylamino)pyrimidin-4-ylamino)-4-ethyl-2H-benzo[b][1,4]oxazin-3(4H)-one], for which the IC50 in assay [1] and in assay [2] was 0.5 to 5 µM in each case. In addition, in assay [1], the pIC50 is more than 5.00.

On to `Cc1cnc(Nc2ccc(N3CCN(C)CC3)cc2)nc1Nc1ccc2c(c1)N(CCCF)C(=O)CO2` [compound 188, 4-(3-fluoropropyl)-6-(5-methyl-2-(4-(4-methylpiperazin-1-yl)phenylamino)pyrimidin-4-ylamino)-2H-benzo[b][1,4]oxazin-3(4H)-one], for which, in assay [1], the half-inhibitory concentration (IC50) was 0.5 to 5 µM and the pIC50 was more than 5.00. In addition, the IC50 in assay [2] was in the range of 0.5 to 5 µM.

Take `CCN1C(=O)COc2ccc(Nc3nc(Nc4ccc(N5CCN(C)CC5)cc4)ncc3C)cc21` [compound 189, 4-ethyl-6-(5-methyl-2-(4-(4-methylpiperazin-1-yl)phenylamino)pyrimidin-4-ylamino)-2H-benzo[b][1,4]oxazin-3(4H)-one]: the IC50 in assay [1] and in assay [2] was 0.5 to 5 µM in each case. The pIC50 in assay [1] was more than 5.00.

For `CCN1C(=O)COc2ccc(Nc3nc(Nc4ccc(N5CCN(C)CC5)c(C)c4)ncc3C)cc21` [compound 191, 4-ethyl-6-(5-methyl-2-(3-methyl-4-(4-methylpiperazin-1-yl)phenylamino)pyrimidin-4-ylamino)-2H-benzo[b][1,4]oxazin-3(4H)-one], in assay [1], the IC50 was 5 to 10 µM and the pIC50 was more than 5.00. The compound also registered an IC50 in assay [2] not below 10 µM.

Take `CCN1C(=O)COc2ccc(Nc3nc(Nc4ccc(N5CCN(S(C)(=O)=O)CC5)cc4)ncc3C)cc21` [compound 196, 4-ethyl-6-(5-methyl-2-(4-(4-(methyl-sulfonyl)piperazin-1-yl)phenylamino)pyrimidin-4-ylamino)-2H-benzo[b][1,4]oxazin-3(4H)-one]: the IC50 was 0.5 to 5 µM in assay [1] and 5 to 10 µM in assay [2]. Also, the pIC50 in assay [1] was more than 5.00.

With `CN1C(=O)COc2ccc(Nc3nc(Nc4ccc(N5CCN(S(C)(=O)=O)CC5)cc4)ncc3Cl)cc21` [compound 197, 6-(5-chloro-2-(4-(4-(methylsulfonyl)piperazin-1-yl)phenyl-amino)pyrimidin-4-ylamino)-4-methyl-2H-benzo[b][1,4]oxazin-3(4H)-one], the IC50 in assay [1] was not below 10 µM; in assay [2], 0.5 to 5 µM.

The record behind these values is patent publication US9040527B2, “Pyrimidinediamine kinase inhibitors” (Rigel Pharmaceuticals, Inc., priority 2008, dated 2015).
